According to patent US9334279B2, “Hepatitis C virus inhibitors” (BRISTOL-MYERS SQUIBB COMPANY, priority 2012, dated 2016):

How the values were obtained:
[1] = test system: HCV GT1a(H77) replicon; experiment: HCV replicon luciferase reporter assay, genotype 1a; format: cell-based, HCV genotype 1a; conditions: Hepatitis C virus, 72 h, HUH-7 cells, Renilla luciferase, 3 days incubation, read-out: LE_1a (EC50, range)
Description: A stable HCV GT1a(H77) replicon luciferase reporter cell line (Yanagi M, Purcell RH, Emerson S U, et al. Transcripts from a single full-length cDNA clone of hepatitis C virus are infectious when directly transfected into the liver of a chimpanzee. Proc Natl Acad Sci USA 1997; 94(16):8738-8743) was generated as described previously for the genotype 1b(Con1) replicon luciferase cell line. The replicon construct was modified by introducing mutations into the genes encoding the NS3 helicase domain (proline replaced by leucine at position 1496) and NS5A (serine to isoleucine at position 2204) to improve replication in cell culture.
(§1) HCV replicon luciferase assays were developed to monitor the inhibitory effects of compounds described in the disclosure on HCV genotypes 1a and 1b viral replication. HUH-7 cells, constitutively expressing the HCV replicon, were grown in Dulbecco's Modified Eagle Media (DMEM) (Gibco-BRL) containing 10% Fetal calf serum (FCS) (Sigma) and 1 mg/mL G418 (Gibco-BRL). Compounds were serially diluted 3 folds in DMSO for a twenty-point titration and subsequently transferred to sterile 384-well tissue-culture treated plates (Corning cat #3571). The plates were then seeded with 50 μL of cells at a density of 3.0×10^3 cells/well in DMEM containing 4% FCS (final DMSO concentration at 0.5%). After 3 days incubation at 37° C., cells were analyzed for Renilla Luciferase activity using the EnduRen as substrate (Promega cat #E6485). The EnduRen substrate was diluted in DMEM and then added to the plates to a final concentration of 7.5 μM. The plates were incubated for 2 hrs at 37° C. and then read immediately for 30 seconds with Viewlux Imager (PerkinElmer) using a luminescence program. To assess cytotoxicity of compounds, CC50 values were generated by multiplexing the EnduRen-containing plates with Cell Titer-Blue (Promega, cat #G8082). Cell-Titer Blue (3 μL) was added to each well and incubated for 8 hrs at 37° C. The fluorescence signal from each well was read, with an excitation wavelength at 525/10 nm and an emission wavelength of 598/10 nm, using the Viewlux Imager.
(§2) The EC50 values for compounds were calculated by using a four-parameter logistic equation: y=A+[…])/(1+((C/x)^D))), where A and B denotes minimal and maximal % inhibition, respectively, C is the EC50, D is the hill slope and x represents compound concentration.

[2] = test system: HCV GT1b(Con1) replicon; experiment: HCV replicon luciferase reporter assay, genotype 1b; format: cell-based, HCV genotype 1b; conditions: Hepatitis C virus, 72 h, HUH-7 cells, Renilla luciferase, 3 days incubation, read-out: LE_1b (EC50, range)
Description: An HCV GT1b(Con1) replicon cell system was established as described by Lohmann V, Korner F, Koch J, Herian U, Theilmann L, Bartenschlager R., Science 285(5424):110-3 (1999) and modified to introduce a luciferase reporter (Krieger N, Lohmann V, and Bartenschlager R, J. Virol. 75(10):4614-4624 (2001)). cDNA encoding a humanized form of the Renilla luciferase gene, and a linker sequence fused directly to the 3′-end of the luciferase gene were introduced into the replicon construct using an Asc1 restriction site located in core, directly upstream of the neomycin marker gene. The adaptive mutation at position 1179 (serine to isoleucine) was also introduced (Blight K J, Kolykhalov, A A, Rice, C M, Science 290(5498):1972-1974). A stable cell line constitutively expressing this HCV replicon construct was generated by first linearizing plasmid DNAs with ScaI. RNA transcripts were synthesized in vitro using the T7 MegaScript transcription kit (Ambion, Austin, Tex.) according to manufacturer's directions. In vitro transcripts of the cDNA were transfected into the human hepatoma cell line, HUH-7. […] Resulting cell lines were characterized for positive and negative strand RNA production and protein production over time.
as §1, §2

Work on `CC(C)Oc1ccc(-c2cc(Cl)cc(O[C@@H]3C[C@H]4C(=O)N[C@]5(C(=O)NS(=O)(=O)C6(C)CC6)C[C@H]5/C=C\CC[C@H](C)C[C@@H](C)[C@H](NC(=O)OC(C)(C)C(F)(F)F)C(=O)N4C3)n2)cc1` [Compound 1028, 1,1,1-trifluoro-2-methylpropan-2-yl ((2R,6S,7R,9S,13aS,14aR,16aS,Z)-2-((4-chloro-6-(4-isopropoxyphenyl)pyridin-2-yl)oxy)-7,9-dimethyl-14a-(((1-methylcyclopropyl)sulfonyl)carbamoyl)-5,16-dioxo-1,2,3,5,6,7,8,9,10,11,13a,14,14a,15,16,16a-hexadecahydrocyclopropa[e]pyrrolo[1,2-a][1,4]diazacyclopentadecin-6-yl)carbamate] yielded an EC50 [1] of 35 to 359 nM and an EC50 [2] of 35 to 359 nM.
`CC(C)Oc1ccc(-c2cc(O[C@@H]3C[C@H]4C(=O)N[C@]5(C(=O)NS(=O)(=O)C6(C)CC6)C[C@H]5/C=C\CC[C@@H](C)C[C@@H](C)[C@H](NC(=O)OC(C)(C)C(F)(F)F)C(=O)N4C3)cc(-c3nccs3)n2)cc1` [Compound 1007, 1,1,1-trifluoro-2-methylpropan-2-yl ((2R,6S,7R,9R,13aS,14aR,16aS,Z)-2-((2-(4-isopropoxyphenyl)-6-(thiazol-2-yl)pyridin-4-yl)oxy)-7,9-dimethyl-14a-(((1-methylcyclopropyl)sulfonyl)carbamoyl)-5,16-dioxo-1,2,3,5,6,7,8,9,10,11,13a,14,14a,15,16,16a-hexadecahydrocyclopropa[e]pyrrolo[1,2-a][1,4]diazacyclopentadecin-6-yl)carbamate] gave an EC50 [1] of 1.01 to 5 nM and an EC50 [2] of 1.01 to 5 nM.
`Cc1cc(O[C@@H]2C[C@H]3C(=O)N[C@]4(C(=O)NS(=O)(=O)C5(C)CC5)C[C@H]4/C=C\CC[C@H](C)C[C@@H](C)[C@H](NC(=O)OC(C)(C)C(F)(F)F)C(=O)N3C2)cc(-c2cncs2)n1` [Compound 1016, 1,1,1-trifluoro-2-methylpropan-2-yl ((2R,6S,7R,9S,13aS,14aR,16aS,Z)-7,9-dimethyl-2-((2-methyl-6-(thiazol-5-yl)pyridin-4-yl)oxy)-14a-(((1-methylcyclopropyl)sulfonyl)carbamoyl)-5,16-dioxo-1,2,3,5,6,7,8,9,10,11,13a,14,14a,15,16,16a-hexadecahydrocyclopropa[e]pyrrolo[1,2-a][1,4]diazacyclopentadecin-6-yl)carbamate] showed an EC50 [1] of 35 to 359 nM and an EC50 [2] of 35 to 359 nM.
`CC[C@@H]1O[C@H](C)CC/C=C\[C@@H]2C[C@@]2(C(=O)NS(=O)(=O)C2(C)CC2)NC(=O)[C@@H]2C[C@@H](Oc3cc(-c4ccc(C(F)(F)F)cc4)nc(-c4nccs4)c3)CN2C(=O)[C@H]1NC(=O)OC(C)(C)C(F)(F)F` [Compound 1039, 1,1,1-trifluoro-2-methylpropan-2-yl ((2R,6S,7S,9R,13aS,14aR,16aS,Z)-7-ethyl-9-methyl-14a-(((1-methylcyclopropyl)sulfonyl)carbamoyl)-5,16-dioxo-2-((2-(thiazol-2-yl)-6-(4-(trifluoromethyl)phenyl)pyridin-4-yl)oxy)-2,3,5,6,7,9,10,11,13a,14,14a,15,16,16a-tetradecahydro-1H-cyclopropa[i]pyrrolo[1,2-e][1,5,8]oxadiazacyclopentadecin-6-yl)carbamate] showed an EC50 [1] of 1.01 to 5 nM and an EC50 [2] of 1.01 to 5 nM.
Compound `C[C@@H]1CC/C=C\[C@@H]2C[C@@]2(C(=O)NS(=O)(=O)C2CC2)NC(=O)[C@@H]2C[C@@H](Oc3cc(Cl)ccn3)CN2C(=O)[C@@H](NC(=O)OC(C)(C)C(F)(F)F)[C@H](C)C1` [Compound 1026, 1,1,1-trifluoro-2-methylpropan-2-yl ((2R,6S,7R,9R,13aS,14aR,16aS,Z)-2-((4-chloropyridin-2-yl)oxy)-14a-((cyclopropylsulfonyl)carbamoyl)-7,9-dimethyl-5,16-dioxo-1,2,3,5,6,7,8,9,10,11,13a,14,14a,15,16,16a-hexadecahydrocyclopropa[e]pyrrolo[1,2-a][1,4]diazacyclopentadecin-6-yl)carbamate] has an EC50 [1] of 5.01 to 35 nM and an EC50 [2] of 5.01 to 35 nM.
`CC[C@@H]1O[C@H](C)CC/C=C\[C@@H]2C[C@@]2(C(=O)NS(=O)(=O)C2(C)CC2)NC(=O)[C@@H]2C[C@@H](Oc3cc(-c4ccc(OC(C)C)cc4)nc(-c4nccs4)c3)CN2C(=O)[C@H]1NC(=O)OC1(C(F)(F)F)CCCOC1` (stereo partly drawn) [Compound 1035, 3-(trifluoromethyl)tetrahydro-2H-pyran-3-yl ((2R,6S,7S,9R,13aS,14aR,16aS,Z)-7-ethyl-2-((2-(4-isopropoxyphenyl)-6-(thiazol-2-yl)pyridin-4-yl)oxy)-9-methyl-14a-(((1-methylcyclopropyl)sulfonyl)carbamoyl)-5,16-dioxo-2,3,5,6,7,9,10,11,13a,14,14a,15,16,16a-tetradecahydro-1H-cyclopropa[i]pyrrolo[1,2-e][1,5,8]oxadiazacyclopentadecin-6-yl)carbamate] gave an EC50 [1] of 0.51 to 1 nM and an EC50 [2] of 0.51 to 1 nM.
Work on `CC(C)Oc1ccc(-c2cc(O[C@@H]3C[C@H]4C(=O)N[C@]5(C(=O)NS(=O)(=O)C6(C)CC6)C[C@H]5/C=C\CC[C@H](C)C[C@@H](C)[C@H](NC(=O)OC5(C(F)(F)F)CCCOC5)C(=O)N4C3)cc(-c3cncs3)n2)cc1` (stereo partly drawn) [Compound 1018, 3-(trifluoromethyl)tetrahydro-2H-pyran-3-yl ((2R,6S,7R,9S,13aS,14aR,16aS,Z)-2-((2-(4-isopropoxyphenyl)-6-(thiazol-5-yl)pyridin-4-yl)oxy)-7,9-dimethyl-14a-(((1-methylcyclopropyl)sulfonyl)carbamoyl)-5,16-dioxo-1,2,3,5,6,7,8,9,10,11,13a,14,14a,15,16,16a-hexadecahydrocyclopropa[e]pyrrolo[1,2-a][1,4]diazacyclopentadecin-6-yl)carbamate] yielded an EC50 [1] of 5.01 to 35 nM and an EC50 [2] of 1.01 to 5 nM.
`C[C@@H]1CC/C=C\[C@@H]2C[C@@]2(C(=O)NS(=O)(=O)C2(C)CC2)NC(=O)[C@@H]2C[C@@H](Oc3cc(-c4cccnc4)nc(-c4nccs4)c3)CN2C(=O)[C@@H](NC(=O)OC(C)(C)C(F)(F)F)[C@H](C)C1` [Compound 1050, 1,1,1-trifluoro-2-methylpropan-2-yl ((2R,6S,7R,9R,13aS,14aR,16aS,Z)-7,9-dimethyl-14a-(((1-methylcyclopropyl)sulfonyl)carbamoyl)-5,16-dioxo-2-((6-(thiazol-2-yl)-[2,3′-bipyridin]-4-yl)oxy)-1,2,3,5,6,7,8,9,10,11,13a,14,14a,15,16,16a-hexadecahydrocyclopropa[e]pyrrolo[1,2-a][1,4]diazacyclopentadecin-6-yl)carbamate] was tested, and the EC50 [1] was 1.01 to 5 nM and the EC50 [2] was 0.1 to 0.5 nM.
`Cc1ccc(-c2cc(O[C@@H]3C[C@H]4C(=O)N[C@]5(C(=O)NS(=O)(=O)C6(C)CC6)C[C@H]5/C=C\CC[C@@H](C)C[C@@H](C)[C@H](NC(=O)OC(C)(C)C(F)(F)F)C(=O)N4C3)cc(-c3nccs3)n2)cc1` [Compound 1059, 1,1,1-trifluoro-2-methylpropan-2-yl ((2R,6S,7R,9R,13aS,14aR,16aS,Z)-7,9-dimethyl-14a-(((1-methylcyclopropyl)sulfonyl)carbamoyl)-5,16-dioxo-2-((2-(thiazol-2-yl)-6-(p-tolyl)pyridin-4-yl)oxy)-1,2,3,5,6,7,8,9,10,11,13a,14,14a,15,16,16a-hexadecahydrocyclopropa[e]pyrrolo[1,2-a][1,4]diazacyclopentadecin-6-yl)carbamate] gave an EC50 [1] of 0.51 to 1 nM and an EC50 [2] of 0.51 to 1 nM.
